According to patent publication US10561704B2, “Compositions and methods for treating neuropsychiatric disorders using an endothelin-B receptor agonist” (MIDWESTERN UNIVERSITY, priority 2013, dated 2020):
*1 amine or outer side, *2 acyl side, *3 side chain or, on linkers, in order; H or OH if unused. Where no end group is shown, it is not given here. Suc = O=C(CCC(=O)[*:2])[*:1]

How the values were obtained:
[1] = test system: middle cerebral artery occluded rats; settings: acute study, 24 hours (Leonard et al., 2011); cited from earlier work
postnatal rat brain [2] = assay: Immunofluorescent labeling of ETB receptors, VEGF and NGF in the postnatal rat brain after IRL-1620; assay type: in vivo, Sprague-Dawley rats; settings: IRL-1620 on postnatal day 21, brain at day 28, vs control
Experimental: Timed pregnant female Sprague-Dawley rats (Harlan, Indianapolis, Ind.) were caged singly in a room controlled for ambient temperature (23±1° C.), humidity (50±10%) and a 12 h light/dark cycle (6:00 am-6:00 pm). Food and water were available ad libitum. All animal care and use for procedures were approved by the Institutional Animal Care and Use Committee (IACUC) of Midwestern University. In order to avoid variation due to hormonal changes, male pups only were separated and utilized for this study. The pups were euthanized via decapitation on postnatal day 1, 7, 14 and 28. The brains were aseptically removed and processed for either immunofluorescent labeling or immunoblot analysis of ETB receptors, VEGF and NGF.
(§1) After 21 days of gestation, 70 male and 65 female pups were born to 10 pregnant female rats. 30 male pups were randomly selected for Study I, and divided into 4 groups as follows: Group 1=male pups euthanized on postnatal day 1 (N=10); Group 2=male pups euthanized on postnatal day 7 (N=10); Group 3=male pups euthanized on postnatal day 14 (N=5); Group 4=male pups euthanized on postnatal day 28 (N=5). An additional 20 male pups were randomly selected for Study II, and divided into 2 groups: Control (N=10) and IRL-1620-treated (N=10). Pups in Study II received 3 doses of either isotonic saline (1 ml/kg) or ETB receptor agonist IRL-1620 (5 μg/kg; American Peptide Co, Inc., Sunnyvale, Calif.) on postnatal day 21. The doses were given intravenously at 2 hour intervals. All pups were weighed and evaluated for developmental and behavioral characteristics at postnatal day 1, 7, 14 and 28. Developmental and behavioral characteristics included active vs. sluggish behavior, healthy vs. shedding fur, licking, grooming, aggressive behavior, defecation, urination and wet dog shakes.
Immunofluorescently labeled antibodies were used to determine the expression of ETB receptors, VEGF and NGF in the developing rat brain. Male rat pups were euthanized via decapitation, and the brains were removed at postnatal day 1, 7, 14 and 28. The brains were washed in isotonic saline and transferred to a 4% paraformaldehyde (PFA)/NaPO4 buffer solution for 2 hours to fix the tissue, followed by suspension in a 20% sucrose/4% PFA solution for 48 hours at 4° C. Brains were then sliced into 20 μm thick coronal sections at −30° C. using a cryostat (Microtome cryostat HM 505 E; Walldorf, Germany). Sections were processed for immunofluorescent staining as described by Loo, et al. (Loo et al., 2002), with minor modifications. […] Fluorescence was detected using an inverted fluorescent microscope (Nikon Eclipse TiE, Melville, N.Y.). […]

postnatal rat brain [3] = assay: Immunoblotting of VEGF, NGF and ETB receptors in the postnatal rat brain after IRL-1620; assay type: in vivo, Sprague-Dawley rats
Text: as §1
Protein levels of VEGF, NGF and ETB receptors in the postnatal rat brain of animals in Study II were estimated using immunoblotting technique. Animals were decapitated and the brains were removed on postnatal day 28, which is 7 days post administration of either saline or ETB receptor agonist, IRL-1620. The tissue was homogenized in 10× (w/v) RIPA lysis buffer, and protein concentration was determined according to the Lowry method, using bovine serum albumin as standard (Lowry et al., 1951). Protein (60 μg) was denatured in Laemmli sample buffer and resolved in 10% SDS-PAGE, and then transferred onto nitrocellulose membrane. […] Protein expression was analyzed using Image J (NIH) software.

[4] = IRL-1620 on postnatal day 21, brain at day 28, vs control

Suc-Asp-Glu-Glu-Ala-Val-Tyr-Phe-Ala-His-Leu-Asp-Ile-Ile-Trp (Suc-DEEAVYFAHLDIIW) [IRL-1620]
Reduction of infarct volume [1]: 83.66% | Intensity of ETB receptor staining in cerebral vasculature and cortex (postnatal rat brain [2]): significantly higher | Intensity of NGF staining and number of NGF-positive cells, cortex or subventricular zones (postnatal rat brain [2]): did not alter | Intensity of VEGF staining (postnatal rat brain [2]): further increase | Number of VEGF-positive vessels (postnatal rat brain [2]): further increase | Protein expression of ETB receptors (immunoblotting) (postnatal rat brain [3]; IRL-1620 5 μg/kg IV x3 on postnatal day 21, brain at day 28, vs control): increased | Overall VEGF expression (immunoblotting) (postnatal rat brain [3]; [4]): significantly enhanced | Overall expression of NGF (immunoblotting) (postnatal rat brain [3]; [4]): comparable
